For the experiment, the target named is Acetylcholinesterase (Homo sapiens, UniProt P22303).
Sequence of Acetylcholinesterase (P22303 whole entry): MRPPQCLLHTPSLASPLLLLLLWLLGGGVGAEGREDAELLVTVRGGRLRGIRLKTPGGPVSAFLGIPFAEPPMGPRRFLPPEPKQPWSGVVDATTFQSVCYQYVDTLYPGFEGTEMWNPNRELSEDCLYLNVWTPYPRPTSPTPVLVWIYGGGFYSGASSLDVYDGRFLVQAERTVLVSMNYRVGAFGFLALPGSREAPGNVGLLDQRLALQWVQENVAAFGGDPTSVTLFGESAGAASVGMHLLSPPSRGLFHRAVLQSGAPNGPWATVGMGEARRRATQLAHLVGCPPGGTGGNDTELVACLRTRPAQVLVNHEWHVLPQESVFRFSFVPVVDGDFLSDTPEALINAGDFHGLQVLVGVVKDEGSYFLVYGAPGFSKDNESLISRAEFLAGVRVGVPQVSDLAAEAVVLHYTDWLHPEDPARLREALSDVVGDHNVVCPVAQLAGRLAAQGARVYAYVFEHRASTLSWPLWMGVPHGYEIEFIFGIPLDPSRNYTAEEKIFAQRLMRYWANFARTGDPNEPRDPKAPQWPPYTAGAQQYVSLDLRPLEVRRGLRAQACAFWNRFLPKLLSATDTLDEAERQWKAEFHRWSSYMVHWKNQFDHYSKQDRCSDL
Description: Inhibition of human acetylcholinesterase
In turn, `O=C(CCC1CCN(Cc2ccccc2)CC1)c1ccc2c(c1)CNCCO2` had an IC50 of 0.0398 µM. Next, `O=C(CCC1CCN(Cc2cccc([N+](=O)[O-])c2)CC1)c1cc2c3c(ccn3C(=O)CC2)c1`: 0.00288 µM; `COc1ccccc1CN1CCC(CCC(=O)c2cc3c4c(ccn4C(=O)CC3)c2)CC1`: 0.0646 µM. `O=C(CCC1CCN(Cc2ccccc2)CC1)c1ccc2c(c1)CNCCC2`: half-maximal inhibition (IC50) was put at 0.0229 µM. Compared with the last compound, the IC50 is about 2.8-fold lower.

For the compound `O=C(CCC1CCN(Cc2ccccc2O)CC1)c1cc2c3c(ccn3C(=O)CC2)c1`, the IC50 was 0.0011 µM. In the case of `O=C(CCC1CCN(Cc2ccccc2)CC1)c1ccc2c(c1)CCN2`, the IC50 was 0.0525 µM. In turn, `COc1ccc(CN2CCC(CCC(=O)c3cc4c5c(ccn5C(=O)CC4)c3)CC2)cc1` showed an IC50 of 0.347 µM. On to `O=C(CCC1CCN(Cc2ccccc2)CC1)c1cc2c3c(c1)CCN3C(=O)CCC2`, for which the IC50 was 0.0525 µM. `O=C(CCC1CCN(Cc2ccc(Cl)cc2)CC1)c1cc2c3c(ccn3C(=O)CC2)c1` gave an IC50 of 0.151 µM. For `O=C(CCC1CCN(Cc2ccccc2)CC1)c1cc2c3c(c1)CCC(=O)N3CCC2`, the midpoint of inhibition, the IC50, lay at 0.0158 µM.

In turn, `O=C(CCC1CCN(Cc2ccc(O)cc2)CC1)c1cc2c3c(ccn3C(=O)CC2)c1` had an IC50 of 0.00049 µM. Against the preceding compound, the IC50 is about 32-fold lower. `O=C(CCC1CCN(Cc2ccccc2)CC1)c1cc2c3c(c1)CCN3C(=O)CC2` showed an IC50 of 0.00977 µM.

`O=C(CCC1CCN(Cc2ccccc2Cl)CC1)c1cc2c3c(ccn3C(=O)CC2)c1`: the IC50 was 0.00513 µM. Compound `O=C(CCC1CCN(Cc2ccccc2)CC1)c1cc2c3c(c1)CC(=O)N3CCC2` gave an IC50 of 0.00363 µM. Next, `O=C(CCC1CCN(Cc2ccccc2F)CC1)c1cc2c3c(ccn3C(=O)CC2)c1`: 0.00251 µM; `O=C(CCC1CCN(Cc2cccc(O)c2)CC1)c1cc2c3c(ccn3C(=O)CC2)c1`: 0.00871 µM; `COc1cccc(CN2CCC(CCC(=O)c3cc4c5c(ccn5C(=O)CC4)c3)CC2)c1`: 0.126 µM. Compound `O=C(CCC1CCN(Cc2ccccc2)CC1)c1ccc2c(c1)CCNCC2` had an IC50 of 0.0251 µM. As for `CS(=O)(=O)Nc1ccc2c(CCC3CCN(Cc4ccccc4)CC3)noc2c1`, half-maximal inhibition (IC50) was put at 0.0141 µM. `O=C(CCC1CCN(Cc2cccc(Cl)c2)CC1)c1cc2c3c(ccn3C(=O)CC2)c1`: the IC50 was 0.0049 µM. `O=C(CCC1CCN(Cc2ccc(F)cc2)CC1)c1cc2c3c(ccn3C(=O)CC2)c1` showed an IC50 of 0.00457 µM. In the case of `O=C(CCC1CCN(Cc2ccccc2[N+](=O)[O-])CC1)c1cc2c3c(ccn3C(=O)CC2)c1`, half-maximal inhibition (IC50) required 0.0891 µM. This IC50 lies about 19-fold higher than the previous one. `O=C(CCC1CCN(Cc2ccc([N+](=O)[O-])cc2)CC1)c1cc2c3c(ccn3C(=O)CC2)c1` showed an IC50 of 0.0427 µM. In turn, `O=C(CCC1CCN(Cc2ccccc2)CC1)c1ccc2c(c1)NCCC2` gave an IC50 of 0.166 µM. As for `O=C(CCC1CCN(Cc2ccccc2)CC1)c1ccc2c(c1)NC(c1ccccc1)N2` (stereo not drawn), the IC50 was 0.0331 µM. The figure for `c1ccc(CN2CCC(CCc3noc4cc(C5CCCCC5)ccc34)CC2)cc1` is 0.000794 µM; for `O=C(CCC1CCN(Cc2cccc(F)c2)CC1)c1cc2c3c(ccn3C(=O)CC2)c1` it is 0.00129 µM; for `O=C(CCC1CCN(Cc2ccccc2)CC1)c1ccc2c(c1)CCCN2` it is 0.0646 µM.

For the origin of these results see ChEMBL document CHEMBL1649350, “Receptor-dependent (RD) 3D-QSAR approach of a series of benzylpiperidine inhibitors of human acetylcholinesterase (HuAChE)” (Eur J Med Chem, 2011).
